Assay results reported in patent US20230340137A1, “METHODS, THERAPIES AND USES FOR TREATING CANCER” (PFIZER INC., priority 2020, published 2023).

Columns and labels:
MM.1S-luc cells = test: BCMAxCD3 mediated cell killing with human T cells, with or without GSI (luciferase viability); assay type: cell-based; details: with or without 1 μM GSI, 60 hours
Method: (§1) CD3^+ T cells from PBMCs (Stem Cell Technologies) were negatively selected using EasySep Human T cell enrichment kit (Stem Cell Technologies). Multiple myeloma cells expressing luciferase (MM.1S-luc, OPM2-luc, H929-luc, Molp8-luc, RPMI8226-luc) were treated with 1 μM GSI […]. After 24 hours, cells were seeded with 50,000 CD3^+ pan T cells in a clear 96-well V-bottom plate. Cells were further treated with a range of BCMAxCD3 bispecific antibody concentrations with or without 1 μM GSI. 60 hours after treatment, luciferase activity in treated cells was analyzed using NeoLite reagent kit (Perkin Elmer) and acquired on VictorX multimode plate reader (Perkin Elmer). Cell viability was calculated by dividing luciferase activity of treated cells over luciferase activity of untreated control (no BCMAxCD3 bispecific antibody added).

Molp8-luc cells = test: as above; assay type: cell-based; details: with or without 1 μM GSI, 60 hours
Method: as §1

RPMI8226-luc cells = test: as above; assay type: cell-based; details: with or without 1 μM GSI, 60 hours
Method: as §1

[1] = tested on: adult patients with advanced multiple myeloma; test: Phase 1 clinical study NCT03269136, patient response per IMWG criteria; assay type: in vivo, human
Excerpt: This Example illustrates an ongoing Phase 1 open-label, multicenter clinical study of PF-06863135 (BCMA×CD3 bispecific) as monotherapy and in combination with sasanlimab, lenalidomide or pomalidomide, in adult patients with advanced multiple myeloma who have relapsed from or are refractory to standard therapy. The study has been registered on ClinicalTrials.gov with identifier NCT03269136 and was first posted August 2017. Study results for Part 1 of the trial and additional arms for the study are described in this Example.
Part 1 of the Study is the […] single agent dose escalation arm at the dose levels of 0.1, 0.3, 1, 3, 10, 30, and 50 μg/kg Q1W by intravenous (IV) administration, and at the dose levels of 80, 130, 215, 360, 600 and 1000 μg/kg Q1W by subcutaneous (SC) administration. Upon reaching maximum tolerated dose (MTD)/maximum administered dose (MAD), patients can be treated at a dose level selected from the foregoing dose levels described in this paragraph, and below the MTD/MAD fora Q2W administration, both IV and SC, to further support the recommended phase 2 dose (RP2D) decision. For the study, dose limiting toxicity observation period is set at 21 days for Q1W dosing and 28 days for Q2W dosing. The treatment cycle, aka cycle, for Q1W dosing would be 3 weeks, and for Q2W dosing would be four weeks.
Clinical Outcome of Part 1 of the Study. As of 15 Apr. 2020, a total of 23 patients were enrolled in Part 1 of the study and had been treated with PF-06863135 administered intravenously (IV) at 0.1 (N=2), 0.3 (N=3), 1 (N=2), 3 (N=3), 10 (N=2), 30 (N=5), and 50 (N=6) μg/kg. As of Aug. 21, 2020, a total of 30 patients were enrolled in Part 1 of the study and had been treated with PF-06863135 administered subcutaneously (SC) at 80 (N=6), 130 (N=4), 215 (N=4), 360 (N=4), 600 (N=6) and 1000 (N=6) μg/kg. Safety and efficacy data were available for in 23 IV and 30 SC treated patients per IMWG (International Myeloma Working Group) criteria.
Part 1.1 of the Study is an alternative maintenance dose escalation arm for single agent PF-06863135. If excessive toxicity occurs or the maximum tolerated dose (MTD)/maximum administered dose (MAD) is reached at a dose level that is earlier than desired in Part 1 of the study described above, a priming dose will be administered one week prior to the day 1 cycle 1 administration of the dose (maintenance dose) at this dose level and for all subsequent dose levels in the dose escalation that may be initiated for Part 1.1. The priming dosing will be at a lower dose level than the maintenance dose.
Clinical outcome of Part 1.1 of the Study. As of Feb. 4, 2021, a total of 20 patients were enrolled and treatment in Part 1.1 of the Study, with cohort of 7 patients at a 600 μg/kg priming dose followed by 1000 μg/kg Q1W dosing, and a cohort of 13 patients at a 600 μg/kg priming dose followed by 1000 μg/kg Q2W dosing. The CRS in these two cohorts is described in Table 13. Introducing of priming dose decreased medium duration of CRS by 50%, from 4 days to 2 days. The dose frequency in part 1.1 of the study (Q1W v. Q2W) had no impact on the CRS. Patient response of Part 1.1 of the Study is described in Table 14.

[2] = 600 μg/kg priming, 1000 μg/kg Q1W SC, N = 7
[3] = 600 μg/kg priming, 1000 μg/kg Q2W SC, N = 13

## PF-06863135: heterodimeric humanized full-length bispecific antibody, one BCMA binding arm and one CD3 binding arm, modified human IgG2Δa Fc
MM.1S-luc cells; BCMAxCD3 0.00001 nM
  MM.1S cell viability: 80.6 ± 3.9 % control
MM.1S-luc cells; BCMAxCD3 0.00005 nM
  MM.1S cell viability: 79.8 ± 2.9 % control
MM.1S-luc cells; BCMAxCD3 0.00026 nM
  MM.1S cell viability: 78 ± 0.9 % control
MM.1S-luc cells; BCMAxCD3 0.00128 nM
  MM.1S cell viability: 87.7 ± 4.4 % control
MM.1S-luc cells; BCMAxCD3 0.0064 nM
  MM.1S cell viability: 108 ± 4.5 % control
MM.1S-luc cells; BCMAxCD3 0.032 nM
  MM.1S cell viability: 2.5 ± 0.3 % control
MM.1S-luc cells; BCMAxCD3 0.16 nM
  MM.1S cell viability: 1.7 ± 0.8 % control
MM.1S-luc cells; BCMAxCD3 0.8 nM
  MM.1S cell viability: 2.4 ± 0.5 % control
MM.1S-luc cells; BCMAxCD3 4 nM
  MM.1S cell viability: 1.3 ± 0.8 % control
Molp8-luc cells; BCMAxCD3 0.00001 nM
  Molp8 cell viability: 64 ± 11.6 % control
Molp8-luc cells; BCMAxCD3 0.00005 nM
  Molp8 cell viability: 59.1 ± 4.6 % control
Molp8-luc cells; BCMAxCD3 0.00026 nM
  Molp8 cell viability: 58.5 ± 0.6 % control
Molp8-luc cells; BCMAxCD3 0.00128 nM
  Molp8 cell viability: 66.7 ± 0.3 % control
Molp8-luc cells; BCMAxCD3 0.0064 nM
  Molp8 cell viability: 55.2 ± 1.3 % control
Molp8-luc cells; BCMAxCD3 0.032 nM
  Molp8 cell viability: 66.1 ± 4.9 % control
Molp8-luc cells; BCMAxCD3 0.16 nM
  Molp8 cell viability: 8 ± 2 % control
Molp8-luc cells; BCMAxCD3 0.8 nM
  Molp8 cell viability: 6.1 ± 0.7 % control
Molp8-luc cells; BCMAxCD3 4 nM
  Molp8 cell viability: 5.2 ± 0.3 % control
RPMI8226-luc cells; BCMA × CD3 0.00064 nM
  RPMI8226 cell viability: 113.2 ± 10.6 % control
RPMI8226-luc cells; BCMA × CD3 0.0032 nM
  RPMI8226 cell viability: 130.5 ± 19.5 % control
RPMI8226-luc cells; BCMA × CD3 0.016 nM
  RPMI8226 cell viability: 113.4 ± 1.3 % control
RPMI8226-luc cells; BCMA × CD3 0.08 nM
  RPMI8226 cell viability: 54.2 ± 16.9 % control
RPMI8226-luc cells; BCMA × CD3 0.4 nM
  RPMI8226 cell viability: 28.7 ± 13.6 % control
RPMI8226-luc cells; BCMA × CD3 2 nM
  RPMI8226 cell viability: 25.7 ± 5.5 % control
RPMI8226-luc cells; BCMA × CD3 10 nM
  RPMI8226 cell viability: 19.9 ± 1.1 % control
RPMI8226-luc cells; BCMA × CD3 50 nM
  RPMI8226 cell viability: 19.4 ± 5^ % control
[1]; 50 μg/kg IV
  patients achieving a complete response: 1 patient
[1]; 215 μg/kg SC, N = 4
  OR (percent): (75%)
  OR (responders/patients): 3/4
  PR (number of patients): 1
  sCR (number of patients): 2
[1]; 360 μg/kg SC, N = 4
  OR (percent): (75%)
  OR (responders/patients): 3/4
  PD (number of patients): 1
  VGPR (number of patients): 2
  sCR (number of patients): 1
[1]; 600 μg/kg SC, N = 6
  OR (percent): (67%)
  OR (responders/patients): 4/6
  PD (number of patients): 1
  VGPR (number of patients): 2
  sCR (number of patients): 2
[1]; [2]
  CR (number of patients): 2
  OR (percent): (57%)
  OR (responders/patients): 4/7
  PR (number of patients): 1
  VGPR (number of patients): 1
[1]; [3]
  OR (percent): (54%)
  OR (responders/patients): 7/13
  PD (number of patients): 3
  PR (number of patients): 3
  VGPR (number of patients): 4
[1]; 1000 μg/kg SC, N = 6
  CR (number of patients): 1
  OR (percent): (83%)
  OR (responders/patients): 5/6
  PD (number of patients): 1
  PR (number of patients): 1
  VGPR (number of patients): 3
[1]; 600 and 1000 μg/kg SC
  clinical efficacy: seen in most patients
[1]; IV cohorts (0.3-50 μg/kg)
  subjects with best response of stable disease: Ten
[1]; IV cohorts, at 3 μg/kg and 50 μg/kg IV
  patients achieving a minimal response: 2 patients
